How the values were obtained:
[1] = Solubility testing of psilocin benzoate salt in potential intravenous vehicles
Description: Solubility of the psilocin benzoate salt was assessed in a range of potential intravenous vehicles. […] Each vehicle was degassed by sonication prior to use.
The pH of each formulation was measured and samples for assay analysis from each formulation were taken following preparation and then again following 6 hours bench top storage at ambient temperature.

[2] = Stability in solution of psilocin free base versus benzoate salt; settings: prone to oxidation

Compound | solubility under saturating conditions ([1]; all of the vehicles on test) | limit of solubility ([1]; in aqueous solution) | stability in solution [2]
CN(C)CCc1c[nH]c2cccc(O)c12.O=C(O)c1ccccc1 [psilocin benzoate] | partially soluble | approximately 4 mg/ml | more stable
CN(C)CCc1c[nH]c2cccc(O)c12 [Psilocin] |  |  | highly unstable in solution

— US20250073207A1, “PSILOCIN BENZOATE FORMULATION FOR I[…]” (Eleusis Therapeutics US, Inc., priority 2022, published 2025)
